pIC50, pKi: −log10 of the molar value. Activity calls are given as the source filed them. No cut-off for these calls is given here.

The target of one data set is Acetylcholinesterase (Homo sapiens, UniProt P22303).
Data set [1] has as its target T1, Liver carboxylesterase (Sus scrofa, UniProt Q29550).
T1 sequence (Q29550 whole entry): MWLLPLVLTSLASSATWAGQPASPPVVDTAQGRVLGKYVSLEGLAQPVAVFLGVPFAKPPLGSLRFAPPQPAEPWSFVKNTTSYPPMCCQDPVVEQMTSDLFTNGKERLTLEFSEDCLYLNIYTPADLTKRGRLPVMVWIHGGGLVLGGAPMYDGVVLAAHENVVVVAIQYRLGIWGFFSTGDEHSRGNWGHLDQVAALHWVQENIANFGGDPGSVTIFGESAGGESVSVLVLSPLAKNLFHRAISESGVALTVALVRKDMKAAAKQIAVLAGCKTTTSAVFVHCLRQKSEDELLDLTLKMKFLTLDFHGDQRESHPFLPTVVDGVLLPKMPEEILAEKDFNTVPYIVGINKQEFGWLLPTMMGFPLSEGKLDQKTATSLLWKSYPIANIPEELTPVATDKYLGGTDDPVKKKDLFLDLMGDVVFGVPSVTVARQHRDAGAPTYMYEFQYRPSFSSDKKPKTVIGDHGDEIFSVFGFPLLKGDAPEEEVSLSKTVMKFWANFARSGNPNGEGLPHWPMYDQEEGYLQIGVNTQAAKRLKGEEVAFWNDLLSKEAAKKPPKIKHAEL
Briefly: in vitro. Particulars: pig, porcine liver carboxylesterase, probe 4-nitrophenol acetate.
Description: Inhibition of porcine liver carboxylesterase at 20 uM using 4-nitrophenol acetate as substrate incubated for 10 mins followed by substrate addition by spectrophotometric method relative to control

Data set [2] deals with T1, Liver carboxylesterase.
Description: Inhibition of porcine liver carboxylesterase using 4-nitrophenol acetate as substrate incubated for 10 mins followed by substrate addition by spectrophotometric method
Data set [3] addresses T2, Cholinesterase (Equus caballus, UniProt P81908).
Description: Inhibition of equine serum BChE using butylthiocholine iodide as substrate incubated for 10 mins followed by substrate addition by Ellman's method
Data set [4] concerns the target Cholinesterase (Equus caballus) (UniProt P81908). Description: Inhibition of equine serum BChE at 20 uM using butylthiocholine iodide as substrate incubated for 10 mins followed by substrate addition by Ellman's method relative to control. (Ellman's reagent forms a yellow product with free thiols.)
Data set [5] has as its target T2, Cholinesterase. Description: Competitive inhibition of equine serum BChE using butylthiocholine iodide as substrate incubated for 10 mins followed by substrate addition by Lineweaver-Burk double-reciprocal plot analysis.
The target of data set [6] is Cholinesterase (Equus caballus) (UniProt P81908). Description: Non-competitive inhibition of equine serum BChE using butylthiocholine iodide as substrate incubated for 10 mins followed by substrate addition by Lineweaver-Burk double-reciprocal plot analysis.
Cholinesterase (Equus caballus), sequence (P81908 whole entry): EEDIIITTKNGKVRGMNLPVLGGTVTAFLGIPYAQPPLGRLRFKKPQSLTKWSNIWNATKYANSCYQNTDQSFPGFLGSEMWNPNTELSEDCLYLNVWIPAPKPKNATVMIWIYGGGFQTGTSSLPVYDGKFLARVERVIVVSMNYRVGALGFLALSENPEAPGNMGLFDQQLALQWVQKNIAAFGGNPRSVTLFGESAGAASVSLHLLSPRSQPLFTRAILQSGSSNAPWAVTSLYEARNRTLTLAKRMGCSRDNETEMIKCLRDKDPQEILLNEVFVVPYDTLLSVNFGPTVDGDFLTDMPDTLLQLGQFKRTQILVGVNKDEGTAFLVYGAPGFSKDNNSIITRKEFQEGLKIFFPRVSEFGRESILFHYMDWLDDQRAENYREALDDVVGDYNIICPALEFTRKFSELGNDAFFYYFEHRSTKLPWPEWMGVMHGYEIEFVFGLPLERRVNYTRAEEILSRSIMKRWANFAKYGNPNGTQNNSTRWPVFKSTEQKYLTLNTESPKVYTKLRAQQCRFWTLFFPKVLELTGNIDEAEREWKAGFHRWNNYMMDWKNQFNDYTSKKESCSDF

T2 sequence (P81908 whole entry): as above
Acetylcholinesterase, sequence (P22303 whole entry): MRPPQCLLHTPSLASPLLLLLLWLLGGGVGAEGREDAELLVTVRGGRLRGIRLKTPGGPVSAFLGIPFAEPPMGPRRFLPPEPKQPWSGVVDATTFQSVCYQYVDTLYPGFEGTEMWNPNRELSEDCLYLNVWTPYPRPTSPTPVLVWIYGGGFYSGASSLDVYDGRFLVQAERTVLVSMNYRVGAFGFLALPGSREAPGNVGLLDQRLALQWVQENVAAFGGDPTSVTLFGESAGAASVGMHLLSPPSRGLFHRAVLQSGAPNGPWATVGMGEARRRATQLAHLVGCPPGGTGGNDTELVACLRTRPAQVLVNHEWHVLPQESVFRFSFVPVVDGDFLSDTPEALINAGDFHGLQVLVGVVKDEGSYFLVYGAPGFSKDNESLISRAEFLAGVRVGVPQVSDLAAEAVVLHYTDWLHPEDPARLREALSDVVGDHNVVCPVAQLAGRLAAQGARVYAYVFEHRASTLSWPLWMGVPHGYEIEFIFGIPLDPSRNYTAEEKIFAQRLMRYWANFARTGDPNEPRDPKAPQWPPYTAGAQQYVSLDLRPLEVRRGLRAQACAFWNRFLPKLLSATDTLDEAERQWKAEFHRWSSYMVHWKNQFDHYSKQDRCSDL
Description for Acetylcholinesterase: Inhibition of human erythrocyte AChE using acetylthiocholine iodide as substrate incubated for 10 mins followed by substrate addition by Ellman's method

In general, pIC50 refers to the IC50 on a negative log10 scale, so that one unit is a factor of ten. Higher therefore signals a low IC50. As usually defined, the inhibition is the relative decrease from the control value, in per cent. For `C=Cc1oc2ccccc2c(=O)c1CN(Cc1ccccc1)/C(=C/C(=O)OC)C(=O)OC`, the figures for the pIC50 against Acetylcholinesterase, against Liver carboxylesterase [2] and against Cholinesterase [3] were less than 4.70, less than 4.70 and 4.86, respectively. The inhibition at 10 min, 20 µM on Liver carboxylesterase [1] was determined as 26.4%.

On to `C=Cc1oc2c(OCC)cccc2c(=O)c1CN(/C=C/C(=O)OC)Cc1ccccc1`, for which the inhibition at 10 min, 20 µM on Liver carboxylesterase [1] came out at 25.9%. In addition, the pIC50 against Liver carboxylesterase [2] and on Cholinesterase [3] was less than 4.70 throughout. Moreover, the inhibition in data set [4] is 16.3%.

`CN1CCc2oc3ccccc3c(=O)c2C1`: the inhibition at 10 min, 20 µM against Liver carboxylesterase [1] was 6.4%. The compound also showed a pIC50 at Liver carboxylesterase [2] of less than 4.70. Further, in data set [4], the inhibition result was “inactive”.

Turning to `O=c1c2c(oc3ccccc13)CCN(Cc1ccccc1)C2`, the pIC50 against Acetylcholinesterase and against Cholinesterase [3] was less than 4.70 each time. Also, the inhibition in data set [4] was 13%.

In the case of `CCOc1cccc2c(=O)c3c(oc12)CCN(C)C3`, the pIC50 against Acetylcholinesterase and on Liver carboxylesterase [2] was less than 4.70 throughout. At Liver carboxylesterase [1], this compound returned an inhibition at 10 min, 20 µM of 7.6%. In addition, the inhibition entry in data set [4] is “inactive”.

In the case of `O=c1c2c(oc3ccc(Br)cc13)CCN(Cc1ccccc1)C2`, the pIC50 on Acetylcholinesterase, against Liver carboxylesterase [2] and at Cholinesterase [3] was less than 4.70 throughout. Further, the inhibition at 10 min, 20 µM against Liver carboxylesterase [1] is 31.2%. In data set [4], the inhibition is 3.3%.

On to `CCOc1cccc2c(=O)c3c(oc12)CCN(/C(=C/C(=O)OC)C(=O)OC)C3`, for which the pIC50 against Acetylcholinesterase, against Liver carboxylesterase [2] and against Cholinesterase [3] was less than 4.70 throughout. The compound also returned an inhibition at 10 min, 20 µM at Liver carboxylesterase [1] of 3.5%. In addition, in data set [4], the inhibition was 20.7%.

On to `C=Cc1oc2ccc(Br)cc2c(=O)c1CN(/C=C/C(C)=O)Cc1ccccc1`, for which the pIC50 is less than 4.70 on Acetylcholinesterase, less than 4.70 against Liver carboxylesterase [2] and 4.87 at Cholinesterase [3]. The inhibition at 10 min, 20 µM on Liver carboxylesterase [1] was determined as 4.6%.

For `CN1CCc2oc3ccc(Br)cc3c(=O)c2C1`, the pIC50 on Acetylcholinesterase and at Cholinesterase [3] was less than 4.70 in each case. This compound yielded an inhibition in data set [4] of 4.2%.

For orientation: pKi means the negative decadic logarithm of the Ki, by convention in mol/L. Low readings indicate a large Ki, high ones a small Ki. For the compound `C=Cc1oc2ccc(Br)cc2c(=O)c1CN(/C=C/C(=O)OC)Cc1ccccc1`, the pIC50 was less than 4.70 against Acetylcholinesterase, less than 4.70 against Liver carboxylesterase [2] and 5.64 at Cholinesterase [3]. The compound further displayed an inhibition at 10 min, 20 µM on Liver carboxylesterase [1] of 22.4%. At Cholinesterase [5], the pKi was 5.81. Also, in data set [6], the alphaKi stood at 6.9 µM.

In the case of `C=Cc1oc2ccccc2c(=O)c1CN(/C=C/C(=O)OC)Cc1ccccc1`, the results for the pIC50 on Acetylcholinesterase, against Liver carboxylesterase [2] and at Cholinesterase [3] were less than 4.70, less than 4.70 and 5.20, respectively. Also, at Liver carboxylesterase [1], the inhibition at 10 min, 20 µM came to 23.6%. At Cholinesterase [5], this compound gave a pKi of 5.75. For the same compound, the alphaKi in data set [6] was found to be 1.94 µM.

As to `C=Cc1oc2c(OCC)cccc2c(=O)c1CN(C)/C=C/C(=O)OC`, at Liver carboxylesterase [1], the inhibition at 10 min, 20 µM was 7.9%. Besides, the pIC50 against Liver carboxylesterase [2] was less than 4.70. Moreover, the inhibition result in data set [4] is “inactive”.

`C=Cc1oc2ccccc2c(=O)c1CN(C)/C=C/C(=O)OC` registered an inhibition at 10 min, 20 µM at Liver carboxylesterase [1] of 6.3%. In addition, the pIC50 on Liver carboxylesterase [2] and against Cholinesterase [3] was less than 4.70 throughout. Further, the inhibition in data set [4] turned out to be 18.4%.

With `C=Cc1oc2c(OCC)cccc2c(=O)c1CN(/C=C/C(C)=O)Cc1ccccc1`, the pIC50 against Cholinesterase [3] was 4.30.

Regarding `C=Cc1oc2ccccc2c(=O)c1CN(/C=C/C(C)=O)Cc1ccccc1`, the figures for the pIC50 on Acetylcholinesterase, against Liver carboxylesterase [2] and against Cholinesterase [3] were less than 4.70, less than 4.70 and 5.32, respectively. On Liver carboxylesterase [1], this compound gave an inhibition at 10 min, 20 µM of 10%. Further, the pKi on Cholinesterase [5] is 5.67. This compound returned an alphaKi in data set [6] of 9.14 µM.

With `C=Cc1oc2ccc(Br)cc2c(=O)c1CN(Cc1ccccc1)/C(=C/C(=O)OC)C(=O)OC`, the pIC50 on Acetylcholinesterase, against Liver carboxylesterase [2] and at Cholinesterase [3] was less than 4.70 throughout. The compound further yielded an inhibition at 10 min, 20 µM on Liver carboxylesterase [1] of 15.2%. In data set [4], this compound gave an inhibition of 21.9%.

With `COC(=O)/C=C(\C(=O)OC)N1CCc2oc3ccc(Br)cc3c(=O)c2C1`, the pIC50 at Acetylcholinesterase, at Liver carboxylesterase [2] and on Cholinesterase [3] was less than 4.70 throughout. This compound registered an inhibition at 10 min, 20 µM on Liver carboxylesterase [1] of 5.1%. Besides, the inhibition in data set [4] amounted to 4.3%.

`O=[N+]([O-])c1ccc(OP(=O)(O)Oc2ccc([N+](=O)[O-])cc2)cc1`: the inhibition entry in data set [4] was “inactive”.

For `COC(=O)/C=C(\C(=O)OC)N1CCc2oc3ccccc3c(=O)c2C1`, at Liver carboxylesterase [1], the inhibition at 10 min, 20 µM amounted to 19.8%. Further, the pIC50 against Liver carboxylesterase [2] and against Cholinesterase [3] was less than 4.70 throughout. This compound registered an inhibition in data set [4] of 7.5%.

Turning to `CCOc1cccc2c(=O)c3c(oc12)CCN(Cc1ccccc1)C3`, the negative-log IC50 (pIC50) against Acetylcholinesterase and on Cholinesterase [3] was less than 4.70 throughout. This compound came in with an inhibition in data set [4] of 13.2%.

`C=Cc1oc2c(OCC)cccc2c(=O)c1CN(Cc1ccccc1)/C(=C/C(=O)OC)C(=O)OC` came in with an inhibition at 10 min, 20 µM against Liver carboxylesterase [1] of 14.4%. In addition, the pIC50 against Liver carboxylesterase [2] and against Cholinesterase [3] was less than 4.70 throughout. In addition, the inhibition in data set [4] came to 11.2%.

Take `C=Cc1oc2ccc(Br)cc2c(=O)c1CN(C)/C=C/C(=O)OC`: the pIC50 against Acetylcholinesterase, on Liver carboxylesterase [2] and against Cholinesterase [3] was less than 4.70 in each case. Also, on Liver carboxylesterase [1], the inhibition at 10 min, 20 µM was 10.5%. The compound also yielded an inhibition in data set [4] of 14.1%.

These data come from ChEMBL document CHEMBL4229529, “Synthesis, molecular docking, and biological activity of 2-vinyl chromones: Toward selective butyrylcholinesterase inhibitors for potential Alzheimer's disease therapeutics” (Bioorg Med Chem, 2018).
